The source of these data is patent US8802700B2 (Vertex Pharmaceuticals Incorporated, priority 2010, dated 2014).

The target of this test is T1, ΔF508-CFTR (Homo sapiens, UniProt P13569, DEL508-508).
T1 construct: expressed in transfected cells
Kind of test: Membrane potential optical assay (FRET voltage-sensor dyes, VIPR), identification of potentiator compounds. As to conditions: Table 3, assay not given; for Emax: read-out: % Activity (% Efficacy, relative efficacy). The class given is cell-based. The procedure, abridged: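 NIH3T3 mouse fibroblasts stably expressing ΔF508-CFTR, cultured 24 h at 27 °C, were loaded with FRET voltage dyes CC2-DMPE and DiSBAC2(3). Double-addition format: first addition of Cl⁻-free (gluconate) medium with or without compound; membrane-potential change read as fluorescence on VIPR II.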

T1 sequence (P13569 with tags, fused parts or gaps DEL508-508): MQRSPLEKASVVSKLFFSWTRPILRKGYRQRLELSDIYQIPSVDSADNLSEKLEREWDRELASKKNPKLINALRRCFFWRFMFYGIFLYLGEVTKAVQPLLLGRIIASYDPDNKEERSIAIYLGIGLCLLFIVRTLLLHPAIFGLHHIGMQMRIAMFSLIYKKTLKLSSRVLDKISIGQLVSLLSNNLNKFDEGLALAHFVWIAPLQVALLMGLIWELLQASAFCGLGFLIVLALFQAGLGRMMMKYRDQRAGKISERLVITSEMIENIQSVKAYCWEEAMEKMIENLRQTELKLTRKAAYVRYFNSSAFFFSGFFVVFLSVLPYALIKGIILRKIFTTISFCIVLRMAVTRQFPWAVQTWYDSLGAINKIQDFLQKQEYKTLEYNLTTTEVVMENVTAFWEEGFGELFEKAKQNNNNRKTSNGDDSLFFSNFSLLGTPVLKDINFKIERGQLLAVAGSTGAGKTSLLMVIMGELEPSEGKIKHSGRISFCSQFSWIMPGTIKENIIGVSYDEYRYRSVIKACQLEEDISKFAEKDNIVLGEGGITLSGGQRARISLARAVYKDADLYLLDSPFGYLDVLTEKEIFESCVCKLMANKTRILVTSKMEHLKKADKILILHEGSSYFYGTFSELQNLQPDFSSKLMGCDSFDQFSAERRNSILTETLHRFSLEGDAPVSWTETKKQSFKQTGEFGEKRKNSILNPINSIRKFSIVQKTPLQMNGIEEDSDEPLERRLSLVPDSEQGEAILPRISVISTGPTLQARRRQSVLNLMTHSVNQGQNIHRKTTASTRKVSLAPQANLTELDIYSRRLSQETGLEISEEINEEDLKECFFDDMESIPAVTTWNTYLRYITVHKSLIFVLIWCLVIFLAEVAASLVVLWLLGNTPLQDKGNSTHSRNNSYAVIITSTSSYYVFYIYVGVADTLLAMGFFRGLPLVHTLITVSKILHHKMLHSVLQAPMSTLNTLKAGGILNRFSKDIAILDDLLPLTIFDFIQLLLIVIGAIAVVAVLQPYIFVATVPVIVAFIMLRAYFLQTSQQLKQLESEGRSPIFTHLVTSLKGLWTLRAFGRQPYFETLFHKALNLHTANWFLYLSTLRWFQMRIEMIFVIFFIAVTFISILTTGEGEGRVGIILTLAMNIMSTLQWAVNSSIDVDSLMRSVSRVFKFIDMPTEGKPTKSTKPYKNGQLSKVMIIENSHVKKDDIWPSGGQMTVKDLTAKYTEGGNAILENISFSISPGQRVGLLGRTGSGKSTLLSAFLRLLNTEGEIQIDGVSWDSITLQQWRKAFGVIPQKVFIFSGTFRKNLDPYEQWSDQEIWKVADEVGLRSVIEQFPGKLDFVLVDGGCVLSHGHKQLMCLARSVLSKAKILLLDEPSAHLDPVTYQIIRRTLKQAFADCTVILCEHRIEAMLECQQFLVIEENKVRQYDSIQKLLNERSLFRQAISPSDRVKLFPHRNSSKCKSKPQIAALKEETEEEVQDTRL

Take `CC(C)(C)OC(=O)N1CCC(C)(C)c2ccc(NC(=O)c3c[nH]c4ccccc4c3=O)cc21` [Compound 108, 4,4-dimethyl-7-[(4-oxo-1H-quinolin-3-yl)carbonylamino]-1,2,3,4-tetrahydroquinoline-1-carboxylic acid tert-butyl ester]: the Emax was 25 to 100%.
Consider `CC(=O)N1CCCC(C)(C)c2ccc(NC(=O)c3c[nH]c4ccccc4c3=O)cc21` [Compound 109, N-(1-acetyl-2,3,4,5-tetrahydro-5,5-dimethyl-1H-benzo[b]azepin-8-yl)-1,4-dihydro-4-oxoquinoline-3-carboxamide], for which the EC50 (in general, the midpoint of the concentration-response curve) fell in the range of 10 to 25 µM and the Emax fell in the range of 25 to 100%.
As to `N#CCc1ccc(NC(=O)c2c[nH]c3ccccc3c2=O)cc1` [Compound 110, N-[4-(cyanomethyl)phenyl]-4-oxo-1H-quinoline-3-carboxamide], the Emax is < 25%.
With `O=C(Nc1ccccc1C(F)(F)F)c1c[nH]c2ccccc2c1=O` [Compound 111, 4-oxo-N-[2-(trifluoromethyl)phenyl]-1H-quinoline-3-carboxamide], the Emax was 25 to 100%.
As to `CCOc1ccc2ncc(C(=O)Nc3ccc4cc[nH]c4c3)c(O)c2c1` [Compound 112, 6-ethoxy-4-hydroxy-N-(1H-indol-6-yl)quinoline-3-carboxamide], the Emax is 25 to 100%.
On the same count and under the same terms, then `Cc1c[nH]c2cc(NC(=O)c3c[nH]c4ccccc4c3=O)ccc12` [Compound 113, N-(3-methyl-1H-indol-6-yl)-4-oxo-1H-quinoline-3-carboxamide], with 25 to 100%; and `CCOc1ccccc1-c1ccc(NC(=O)OC(C)(C)C)cc1NC(=O)c1c[nH]c2ccccc2c1=O` [Compound 114, [4-(2-ethoxyphenyl)-3-[(4-oxo-1H-quinolin-3-yl)carbonylamino]phenyl]aminoformic acid tert-butyl ester], with 25 to 100%.
The same measure, in the same setting: then `O=C(Nc1ccccc1-c1ccco1)c1c[nH]c2ccccc2c1=O` [Compound 115, N-[2-(2-furyl)phenyl]-4-oxo-1H-quinoline-3-carboxamide], with 25 to 100%; and `O=C(Nc1ccc2cc[nH]c2c1)c1c[nH]c2cccc(O)c2c1=O` [Compound 116, 5-hydroxy-N-(1H-indol-6-yl)-4-oxo-1H-quinoline-3-carboxamide], with 25 to 100%.
The same measure, in the same setting: then `CC(C)c1ccc(NC(=O)c2c[nH]c3ccccc3c2=O)cc1N(C)C` [Compound 117, N-(3-dimethylamino-4-isopropyl-phenyl)-4-oxo-1H-quinoline-3-carboxamide], with 25 to 100%.
`O=C(Nc1ccccc1-c1ccc2[nH]ccc2c1)c1c[nH]c2ccccc2c1=O` [Compound 118, N-[2-(1H-indol-5-yl)phenyl]-4-oxo-1H-quinoline-3-carboxamide]: the EC50 is < 10 µM and the Emax lay within 25 to 100%.
With `CCOC(=O)NCC(C)(C)c1ccc(NC(=O)c2c[nH]c3ccccc3c2=O)cc1` [Compound 119, [2-methyl-2-[4-[(4-oxo-1H-quinolin-3-yl)carbonylamino]phenyl]-propyl]aminoformic acid ethyl ester], the Emax fell in the range of 25 to 100%.
On the same count and under the same terms, then `COc1ccc(C)cc1NC(=O)c1c[nH]c2ccccc2c1=O` [Compound 120, N-(2-methoxy-5-methyl-phenyl)-4-oxo-1H-quinoline-3-carboxamide], with 25 to 100%; and `COc1ccc(NC(=O)c2c[nH]c3ccccc3c2=O)cc1OC` [Compound 122, N-(3,4-dimethoxyphenyl)-4-oxo-1H-quinoline-3-carboxamide], with < 25%.
As for `O=C(Nc1ccccc1-c1ccoc1)c1c[nH]c2ccccc2c1=O` [Compound 123, N-[2-(3-furyl)phenyl]-4-oxo-1H-quinoline-3-carboxamide], the EC50 is < 10 µM and the Emax was in the range of 25 to 100%.
As to `CC(C)(C)c1cc2cc[nH]c2cc1NC(=O)c1c[nH]c2ccc(F)cc2c1=O` [Compound 124, 6-fluoro-4-oxo-N-(5-tert-butyl-1H-indol-6-yl)-1H-quinoline-3-carboxamide], the Emax is > 100%.
As for `CCc1cccc(NC(=O)c2c[nH]c3ccccc3c2=O)n1` [Compound 125, N-(6-ethyl-2-pyridyl)-4-oxo-1H-quinoline-3-carboxamide], the Emax lay in the range of 25 to 100%.
Same read-out and setting: then `COCCOCC(C)(C)c1ccc(NC(=O)c2c[nH]c3ccccc3c2=O)cc1O` [Compound 126, N-[3-hydroxy-4-[2-(2-methoxyethoxy)-1,1-dimethyl-ethyl]-phenyl]-4-oxo-1H-quinoline-3-carboxamide], with 25 to 100%; and `CCOC(=O)Nc1cc(NC(=O)c2c[nH]c3ccccc3c2=O)ccc1C(C)(C)C` [Compound 127, [5-[(4-oxo-1H-quinolin-3-yl)carbonylamino]-2-tert-butyl-phenyl]aminoformic acid ethyl ester], with 25 to 100%.
On the same count and under the same terms, then `Cc1ccc2c(c1)c(=O)c(C(=O)Nc1ccccc1-c1ccccc1)cn2C` [Compound 128, 1,6-dimethyl-4-oxo-N-(2-phenylphenyl)-1H-quinoline-3-carboxamide], with < 25%; and `CCc1ccc(NC(=O)c2c[nH]c3ccccc3c2=O)cc1NC(=O)OC` [Compound 129, [2-ethyl-5-[(4-oxo-1H-quinolin-3-yl)carbonylamino]phenyl]aminoformic acid methyl ester], with 25 to 100%; and `O=C(Nc1ccc2cc[nH]c2c1)c1cnc2cc(C(F)(F)F)cc(C(F)(F)F)c2c1O` [Compound 130, 4-hydroxy-N-(1H-indol-6-yl)-5,7-bis(trifluoromethyl)quinoline-3-carboxamide], with 25 to 100%.
For `Nc1cc(Cl)cc(NC(=O)c2c[nH]c3ccccc3c2=O)c1` [Compound 131, N-(3-amino-5-chloro-phenyl)-4-oxo-1H-quinoline-3-carboxamide], the EC50 was < 10 µM and the Emax fell in the range of 25 to 100%.
For `CCOc1ccc(NC(C)=O)cc1NC(=O)c1c[nH]c2ccccc2c1=O` [Compound 132, N-(5-acetylamino-2-ethoxy-phenyl)-4-oxo-1H-quinoline-3-carboxamide], the Emax was < 25%.
With `O=C(Nc1cc(Cl)cc(NS(=O)(=O)CCN2CCCCC2)c1)c1c[nH]c2ccccc2c1=O` [Compound 133, N-[3-chloro-5-[2-(1-piperidyl)ethylsulfonylamino]phenyl]-4-oxo-1H-quinoline-3-carboxamide], the Emax lay in the range of 25 to 100%.
The same measure, in the same setting: with `C[S+]([O-])c1ccc(-c2ccccc2NC(=O)c2c[nH]c3ccccc3c2=O)cc1` (stereo not drawn) [Compound 134, N-[2-(4-methylsulfinylphenyl)phenyl]-4-oxo-1H-quinoline-3-carboxamide] the figure was 25 to 100%; with `O=C(Nc1ccccc1-c1ccc2c(c1)OCO2)c1c[nH]c2ccccc2c1=O` [Compound 135, N-(2-benzo[1,3]dioxol-5-ylphenyl)-4-oxo-1H-quinoline-3-carboxamide], > 100%; with `CC(C)(C)c1cc(NC(=O)c2c[nH]c3ccccc3c2=O)c(O)c(C(C)(C)C)c1` [Compound 136, N-(2-hydroxy-3,5-ditert-butyl-phenyl)-4-oxo-1H-quinoline-3-carboxamide], 25 to 100%.
Same read-out and setting: with `CN(c1ccc(F)cc1)S(=O)(=O)c1ccc2[nH]cc(C(=O)Nc3cc(O)c(C(C)(C)C)cc3C(C)(C)C)c(=O)c2c1` [Compound 137, 6-[(4-fluorophenyl)-methyl-sulfamoyl]-N-(5-hydroxy-2,4-ditert-butyl-phenyl)-4-oxo-1H-quinoline-3-carboxamide] the figure was 25 to 100%.
